Results published in patent publication US20100150863A1, “HYDROXY METHYL PHENYL PYRAZOLYL UREA COMPOUND USEFUL IN TREATMENT OF CANCER” (BAYER PHARMACEUTICALS CORPORATION, priority 2006, published 2010).
Each block holds one molecule with its values, some of them ahead of it.

Experiments:
Bcr-Abl kinase = conditions: greater potency than Imatinib; cited from earlier work
[1] = test system: Imatinib-resistant Bcr-Abl mutations; conditions: cited from earlier work
Bcr-Abl E255K mutant = conditions: cited from earlier work
BaF3-Abl(wt) = assay: Cell proliferation assay, BaF3-Abl(wt); format: cell-based
Source text: [Worded in the source for another cell line; this cell line is reported under the same test.] (§1) The adherent tumor cell proliferation assay used to test the compounds of the present invention involves a readout called Cell Titre-Glo developed by Promega (Cunningham, B A “A Growing Issue: Cell Proliferation Assays. Modern kits ease quantification of cell growth” The Scientist 2001, 15(13), 26; and Crouch, S P et al., “The use of ATP bioluminescence as a measure of cell proliferation and cytotoxicity” Journal of Immunological Methods 1993, 160, 81-88).
(§2) H460 cells (lung carcinoma, purchased from ATCC) were plated in 96-well plates at 3000 cells/well in complete media with 10% Fetal Calf Serum and incubated 24 hours at 37° C. Twenty-four hours after plating, test compounds were added over a final concentration range of 10 nM to 20 μM in serial dilutions at a final DMSO concentration of 0.2%. Cells were incubated for 72 hours at 37° C. in complete growth media after addition of the test compound. On day 4, using a Promega Cell Titer Glo Luminescent® assay kit, the cells were lysed and 100 microliters of substrate/buffer mixture was added to each well, mixed and incubated at room temperature for 8 minutes. The samples were read on a luminometer to measure the amount of ATP present in the cell lysates from each well, which corresponds to the number of viable cells in that well. Values read at 24-hour incubation were subtracted as Day 0. […]

BaF3-Abl(M351T) = assay: Cell proliferation assay, BaF3-Abl(M351T); format: cell-based; conditions: Imatinib-resistant mutation
Source text: [Worded in the source for another cell line; this cell line is reported under the same test.] as §1, §2

BaF3-Abl(E255K) = assay: Cell proliferation assay, BaF3-Abl(E255K); format: cell-based; conditions: Imatinib-resistant mutation
Source text: [Worded in the source for another cell line; this cell line is reported under the same test.] as §1, §2

Bcr-Abl-wt kinase = molecular target: T1, Bcr-Abl-wt kinase (Homo sapiens, UniProt P00519); assay: Bcr-Abl wild type biochemical assay
T1 construct: fused on or other part: P11274 (Breakpoint cluster region protein)
T1 sequence (P00519 229-512 limits assumed): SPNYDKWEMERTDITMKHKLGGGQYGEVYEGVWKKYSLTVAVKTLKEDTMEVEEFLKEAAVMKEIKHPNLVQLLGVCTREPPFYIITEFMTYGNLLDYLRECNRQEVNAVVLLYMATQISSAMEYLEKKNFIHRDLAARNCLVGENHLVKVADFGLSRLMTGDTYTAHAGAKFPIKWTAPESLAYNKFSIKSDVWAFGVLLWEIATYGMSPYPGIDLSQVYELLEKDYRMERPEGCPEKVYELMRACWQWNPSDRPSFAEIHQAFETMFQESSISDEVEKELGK
Protocol: (§3) Bcr-Abl-wt or mutant Bcr-Abl-T315I kinase (0.17 nM) was incubated with Myelin Basic Protein (MBP, 2 μM) in assay buffer consisting of 50 mM Tris pH 7.5, 10 mM MgCl2, 1 mM EGTA, 2 mM DTT, 50 μM ATP and 0.4 μCi of ^33P-ATP. Test compounds were added at varying concentrations (final DMSO conc=1%) prior to the addition of ATP. The reaction mixture was incubated for 1 hour at 32° C. The reaction was then stopped by addition of phosphoric acid (final conc=1%) and samples were transferred to filtermats and read in a betaplate reader. Inhibition of MBP phosphorylation by Bcr-Abl-wt or Bcr-Abl-T315I was analyzed by using a 4 parameter fit and in-house software.

BaF3-Abl(Y253F) = assay: Cell proliferation assay, BaF3-Abl(Y253F); format: cell-based; conditions: Imatinib-resistant mutation
Source text: [Worded in the source for another cell line; this cell line is reported under the same test.] as §1, §2

[2] = test system: BaF3 parental cell line that does not express Bcr-Abl; assay: Cell proliferation assay, BaF3 parental cell line; format: cell-based; conditions: Mus musculus
[3] = molecular target: T2, mutant Bcr-Abl-T315I kinase (Homo sapiens, UniProt P00519, T315I); assay: Bcr-Abl mutant T315I biochemical assay
T2 construct: fused on or other part: P11274 (Breakpoint cluster region protein)
T2 sequence (P00519 242-493 T315I limits assumed): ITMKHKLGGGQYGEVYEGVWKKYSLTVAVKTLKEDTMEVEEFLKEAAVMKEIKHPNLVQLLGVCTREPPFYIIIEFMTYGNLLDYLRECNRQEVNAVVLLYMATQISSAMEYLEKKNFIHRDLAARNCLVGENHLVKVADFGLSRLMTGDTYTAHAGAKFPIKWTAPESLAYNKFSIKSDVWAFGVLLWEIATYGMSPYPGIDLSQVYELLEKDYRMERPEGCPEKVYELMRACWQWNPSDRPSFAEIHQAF
Protocol: as §3

human recombinant c-Met = molecular target: T3, human recombinant c-Met (Homo sapiens, UniProt P08581); assay: c-Met biochemical assay (ELISA)
T3 construct: C-terminal HIS-tagged intracellular kinase domain (956 to 1390 amino acids) human recombinant c-Met; His (C)
Protocol: An ELISA format was used for the c-Met biochemical assay. This assay uses the C-terminal HIS-tagged intracellular kinase domain (956 to 1390 amino acids) human recombinant c-Met in 96-well plates. 96-Well plates (Costar #9018) coated with poly(GluTyr) (Sigma # P0275) were used in this assay. The poly(GluTyr) substrate coated on the plate was phosphorylated in a 100 μL reaction volume with 2 nM c-Met protein in an assay buffer (50 mM HEPES pH7.0, 5 mM MnCl2, 0.1% BSA, 0.5 mM sodium orthovanadate, 0.1% β-mercaptoethanol), with 0.2 μM ATP (Sigma #A7699). […] After 25 minutes of incubation, the assay reaction was stopped with 25 μL of 100 mM EDTA. The plates were then washed, and wells were treated with 100 μL of 80 ng/mL anti-4G10-HRP antibody (Upstate #16-105) for 1 h. Plates were washed one final time, and were developed with 100 μL 3,3′,5,5′-TMB (Sigma #T8665), and quenched with 100 μL 1M HCl. Plates were read on a Victor 2 plate reader (Perkin Elmer) and IC50 analysis and calculation were performed using in-house software.

K562 = assay: Cell proliferation assay, K562; format: cell-based; conditions: K562, human cell line expressing wild type Bcr-Abl; 72 hours, Cell Titer Glo
Source text: [Worded in the source for another cell line; this cell line is reported under the same test.] as §1, §2

BaF3-Abl(T315I) = assay: Cell proliferation assay, BaF3-Abl(T315I); format: cell-based; conditions: Imatinib-resistant mutation
Source text: [Worded in the source for another cell line; this cell line is reported under the same test.] as §1, §2

early phase CML = conditions: patients with early phase CML; cited from earlier work

T3 sequence (P08581 956-1390): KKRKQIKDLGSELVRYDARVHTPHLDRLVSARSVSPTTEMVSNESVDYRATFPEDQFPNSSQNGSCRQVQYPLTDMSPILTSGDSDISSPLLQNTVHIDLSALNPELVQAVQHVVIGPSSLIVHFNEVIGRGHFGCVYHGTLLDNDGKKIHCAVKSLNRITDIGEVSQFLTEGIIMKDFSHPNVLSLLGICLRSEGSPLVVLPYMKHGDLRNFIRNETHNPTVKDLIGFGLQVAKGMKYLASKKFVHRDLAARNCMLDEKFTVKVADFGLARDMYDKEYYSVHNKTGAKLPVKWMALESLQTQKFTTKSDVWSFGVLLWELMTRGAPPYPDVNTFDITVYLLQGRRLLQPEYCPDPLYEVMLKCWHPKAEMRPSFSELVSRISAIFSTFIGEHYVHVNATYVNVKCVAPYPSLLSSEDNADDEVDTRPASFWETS

SMILES: Cc1cn(-c2cc(NC(=O)c3ccc(C)c(Nc4nccc(-c5cccnc5)n4)c3)cc(C(F)(F)F)c2)cn1 [AMN-107, nilotinib]
potency of Bcr-Abl kinase inhibition relative to Imatinib (Bcr-Abl kinase): 20 fold
inhibition of Imatinib-resistant Bcr-Abl mutations [1]: inhibit most Imatinib-resistant Bcr-Abl mutations, except for T315I
inhibition of E255K mutant in a biochemical assay (Bcr-Abl E255K mutant): somewhat weak inhibition

IC50 (BaF3-Abl(wt)): 2.81 nM
IC50 (BaF3-Abl(M351T)): 8.38 nM
IC50 (BaF3-Abl(E255K)): 53.9 nM
IC50 (Bcr-Abl-wt kinase): < 10 µM
IC50 (BaF3-Abl(Y253F)): 4.96 nM
IC50 [3]: < 10 µM
IC50 (human recombinant c-Met): < 10 µM
IC50 (K562): 0.448 nM
IC50 (BaF3-Abl(T315I)): 71 nM
SMILES: CNC(=O)c1cc(Oc2ccc(NC(=O)Nc3cc(C(C)(C)C)nn3-c3cccc(CO)c3)c(Cl)c2)ccn1 [ANDREA-1, 4-{4-[({3-tert-Butyl-1-[3-(hydroxymethyl)phenyl]-1H-pyrazol-5-yl}carbamoyl)amino]-3-chlorophenoxy}-N-methylpyridine-2-carboxamide]
IC50 [2]: > 3000 nM

SMILES: Cc1ccc(NC(=O)c2ccc(CN3CCN(C)CC3)cc2)cc1Nc1nccc(-c2cccnc2)n1 [Imatinib]
degree of response at haematological and cytogenetic levels (early phase CML): greater than 90%
